Reference: the supplement of paper PMC10307832

How the values were obtained:
Experiment in all cases: relative viability (nuclei count vs DMSO), 5 days (fraction); higher = more cells survive
EMC-BAC-2 = system: EMC-BAC-2
Outline: (§1)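 Relative viability is defined as nuclei in treated wells over nuclei in vehicle wells. Duplicate plates were run and medians reported. Lung cancer cell lines in 1536-well plates were dosed by pin tool one day after seeding, with one drug or with a fixed anchor-drug dose plus five library-drug doses (not always all listed) in √10 steps, and nuclei were counted after 5 days.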

EPLC-272H = system: EPLC-272H
Outline: as §1

HCC-44 = system: HCC-44
Outline: as §1

HOP-62 = system: HOP-62
Outline: as §1

LCLC-103H = system: LCLC-103H
Outline: as §1

LOU-NH91 = system: LOU-NH91
Outline: as §1

NCI-H1437 = system: NCI-H1437
Outline: as §1

NCI-H1793 = system: NCI-H1793
Outline: as §1

NCI-H2009 = system: NCI-H2009
Outline: as §1

NCI-H2023 = system: NCI-H2023
Outline: as §1

NCI-H2126 = system: NCI-H2126
Outline: as §1

NCI-H2347 = system: NCI-H2347
Outline: as §1

NCI-H23 = system: NCI-H23
Outline: as §1

NCI-H2405 = system: NCI-H2405
Outline: as §1

NCI-H441 = system: NCI-H441
Outline: as §1

NCI-H460 = system: NCI-H460
Outline: as §1

NCI-H520 = system: NCI-H520
Outline: as §1

NCI-H647 = system: NCI-H647
Outline: as §1

NCI-H650 = system: NCI-H650
Outline: as §1

NCI-H727 = system: NCI-H727
Outline: as §1

SW 1573 = system: SW 1573
Outline: as §1

O=c1[nH]c2ccccc2n1C1CCN(CCCC(c2ccc(F)cc2)c2ccc(F)cc2)CC1 [Pimozide] + C[C@]1(O)C[C@@H](c2nc(-c3ccc4ccc(-c5ccccc5)nc4c3)c3c(N)nccn32)C1 [Linsitinib] (partner 1 µM)
relative viability (EMC-BAC-2; first compound 0.08 µM): 0.768 | relative viability (EMC-BAC-2; first compound 0.253 µM): 0.787 | relative viability (EMC-BAC-2; first compound 0.8 µM): 0.828 | relative viability (EMC-BAC-2; first compound 2.53 µM): 0.828 | relative viability (EMC-BAC-2; first compound 8 µM): 0.749 | relative viability (EPLC-272H; first compound 0.08 µM): 0.913 | relative viability (EPLC-272H; first compound 0.253 µM): 1.15 | relative viability (EPLC-272H; first compound 0.8 µM): 1.21 | relative viability (EPLC-272H; first compound 2.53 µM): 1.17 | relative viability (EPLC-272H; first compound 8 µM): 1.09 | relative viability (HCC-44; first compound 0.08 µM): 0.635 | relative viability (HCC-44; first compound 0.253 µM): 0.703 | relative viability (HCC-44; first compound 0.8 µM): 0.64 | relative viability (HCC-44; first compound 2.53 µM): 0.653 | relative viability (HCC-44; first compound 8 µM): 0.685 | relative viability (HOP-62; first compound 0.08 µM): 0.847 | relative viability (HOP-62; first compound 0.253 µM): 0.839 | relative viability (HOP-62; first compound 2.53 µM): 1.04 | relative viability (HOP-62; first compound 8 µM): 0.754 | relative viability (LCLC-103H; first compound 0.08 µM): 1.01 | relative viability (LCLC-103H; first compound 0.253 µM): 1.02 | relative viability (LCLC-103H; first compound 0.8 µM): 1 | relative viability (LCLC-103H; first compound 2.53 µM): 1.07 | relative viability (LCLC-103H; first compound 8 µM): 1.38 | relative viability (LOU-NH91; first compound 0.08 µM): 0.488 | relative viability (LOU-NH91; first compound 0.253 µM): 0.97 | relative viability (LOU-NH91; first compound 0.8 µM): 0.929 | relative viability (LOU-NH91; first compound 2.53 µM): 1.1 | relative viability (LOU-NH91; first compound 8 µM): 0.959 | relative viability (NCI-H1437; first compound 0.08 µM): 1.09 | relative viability (NCI-H1437; first compound 0.253 µM): 1.11 | relative viability (NCI-H1437; first compound 0.8 µM): 0.932 | relative viability (NCI-H1437; first compound 2.53 µM): 0.899 | relative viability (NCI-H1437; first compound 8 µM): 0.893 | relative viability (NCI-H1793; first compound 0.08 µM): 0.871 | relative viability (NCI-H1793; first compound 0.253 µM): 0.612 | relative viability (NCI-H1793; first compound 0.8 µM): 0.861 | relative viability (NCI-H1793; first compound 2.53 µM): 0.88 | relative viability (NCI-H1793; first compound 8 µM): 0.831 | relative viability (NCI-H2009; first compound 0.08 µM): 1.19 | relative viability (NCI-H2009; first compound 0.253 µM): 1.21 | relative viability (NCI-H2009; first compound 0.8 µM): 1.2 | relative viability (NCI-H2009; first compound 2.53 µM): 1.2 | relative viability (NCI-H2009; first compound 8 µM): 1.01 | relative viability (NCI-H2023; first compound 0.08 µM): 0.613 | relative viability (NCI-H2023; first compound 0.253 µM): 0.654 | relative viability (NCI-H2023; first compound 0.8 µM): 0.61 | relative viability (NCI-H2023; first compound 2.53 µM): 0.667 | relative viability (NCI-H2023; first compound 8 µM): 0.443 | relative viability (NCI-H2126; first compound 0.08 µM): 0.747 | relative viability (NCI-H2126; first compound 0.253 µM): 0.662 | relative viability (NCI-H2126; first compound 0.8 µM): 0.713 | relative viability (NCI-H2126; first compound 2.53 µM): 0.74 | relative viability (NCI-H2126; first compound 8 µM): 0.774 | relative viability (NCI-H2347; first compound 0.08 µM): 1.03 | relative viability (NCI-H2347; first compound 0.253 µM): 0.941 | relative viability (NCI-H2347; first compound 0.8 µM): 0.836 | relative viability (NCI-H2347; first compound 2.53 µM): 0.944 | relative viability (NCI-H2347; first compound 8 µM): 0.958 | relative viability (NCI-H23; first compound 0.08 µM): 0.609 | relative viability (NCI-H23; first compound 0.253 µM): 0.577 | relative viability (NCI-H23; first compound 0.8 µM): 0.49 | relative viability (NCI-H23; first compound 2.53 µM): 0.553 | relative viability (NCI-H23; first compound 8 µM): 0.513 | relative viability (NCI-H2405; first compound 0.08 µM): 0.888 | relative viability (NCI-H2405; first compound 0.253 µM): 0.771 | relative viability (NCI-H2405; first compound 0.8 µM): 0.876 | relative viability (NCI-H2405; first compound 2.53 µM): 0.814 | relative viability (NCI-H2405; first compound 8 µM): 0.7 | relative viability (NCI-H441; first compound 0.08 µM): 0.496 | relative viability (NCI-H441; first compound 0.253 µM): 0.53 | relative viability (NCI-H441; first compound 0.8 µM): 0.752 | relative viability (NCI-H441; first compound 2.53 µM): 0.483 | relative viability (NCI-H441; first compound 8 µM): 0.389 | relative viability (NCI-H460; first compound 0.08 µM): 0.964 | relative viability (NCI-H460; first compound 0.253 µM): 0.725 | relative viability (NCI-H460; first compound 0.8 µM): 0.707 | relative viability (NCI-H460; first compound 2.53 µM): 0.727 | relative viability (NCI-H460; first compound 8 µM): 0.649 | relative viability (NCI-H520; first compound 0.08 µM): 0.894 | relative viability (NCI-H520; first compound 0.253 µM): 1 | relative viability (NCI-H520; first compound 0.8 µM): 1.01 | relative viability (NCI-H520; first compound 2.53 µM): 0.995 | relative viability (NCI-H520; first compound 8 µM): 0.937 | relative viability (NCI-H647; first compound 0.08 µM): 1.16 | relative viability (NCI-H647; first compound 0.253 µM): 1.06 | relative viability (NCI-H647; first compound 0.8 µM): 1.1 | relative viability (NCI-H647; first compound 2.53 µM): 1.17 | relative viability (NCI-H647; first compound 8 µM): 0.779 | relative viability (NCI-H650; first compound 0.08 µM): 0.842 | relative viability (NCI-H650; first compound 0.253 µM): 0.792 | relative viability (NCI-H650; first compound 0.8 µM): 0.911 | relative viability (NCI-H650; first compound 2.53 µM): 0.791 | relative viability (NCI-H650; first compound 8 µM): 0.847 | relative viability (NCI-H727; first compound 0.08 µM): 0.285 | relative viability (NCI-H727; first compound 0.253 µM): 0.337 | relative viability (NCI-H727; first compound 0.8 µM): 0.307 | relative viability (NCI-H727; first compound 2.53 µM): 0.281 | relative viability (NCI-H727; first compound 8 µM): 0.526 | relative viability (SW 1573; first compound 0.08 µM): 0.744 | relative viability (SW 1573; first compound 0.253 µM): 0.778 | relative viability (SW 1573; first compound 0.8 µM): 0.75 | relative viability (SW 1573; first compound 2.53 µM): 0.721 | relative viability (SW 1573; first compound 8 µM): 0.853
